Key:
[1] = test system: AMBEL (Ambrosia artemisifolia); test: Preemergence herbicidal evaluation; assay type: in vivo, L.; conditions: preemergence, rated 4-5 weeks after treatment
Method in brief: (§1)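 Seeds planted in potting soil cups and sprayed preemergence with aqueous acetone compound solution. Greenhouse-grown; rated 4–5 weeks after treatment on a 0-9 visual scale (stand, vigor, malformation, size, chlorosis, appearance) versus control.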

[2] = test system: CASOB (Cassia obtusifolia); test: Preemergence herbicidal evaluation; assay type: in vivo, L.; conditions: preemergence, rated 4-5 weeks after treatment
Method in brief: as §1

[3] = test system: CHEAL (Chenopodium album); test: Preemergence herbicidal evaluation; assay type: in vivo, L.; conditions: preemergence, rated 4-5 weeks after treatment
Method in brief: as §1

GALAP (Galium aparine) [4] = test: Postemergence herbicidal evaluation; assay type: in vivo
Method in brief: (§2)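 Seedlings grown about two weeks in flats, sprayed, then kept under standard greenhouse care. Rated visually 4–5 weeks after treatment on a 0–9 scale (stand, vigour, malformation, size, chlorosis, overall appearance) relative to untreated control; repeat tests averaged.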

[5] = test system: ECHORC (Echinochloa oryzoides); test: Flooded paddy, preemergence weed control; assay type: in vivo, Echinochloa oryzoides (Ard.) Fritsch.; conditions: rate 0.1250 kg/ha, rated 3-4 weeks after treatment, 0-9 rating scale
Method in brief: (§3)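 Scoring used a 0-9 visual scale relative to control. Before that, seeds or propagules were planted shallowly in silt loam and flooded to 1.5–3 cm, a depth maintained throughout, with greenhouse care during the test.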

[6] = test system: GLXMAW (Soybean, Williams); test: Postemergence herbicidal evaluation; assay type: in vivo, Glycine max, (L.) Merr. cv Williams
Method in brief: as §2

ORYSAT (Rice, Tebonnet) [7] = test: Flooded paddy, post-transplant rice tolerance; assay type: in vivo, Oryza sativa, (L.) Tebonnet; conditions: flooded paddy, post-transplant rice; rate 0.1250 kg/ha; rated 3-4 weeks after treatment; 0-9 rating scale
Method in brief: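 Two ten-day-old Tebonnet rice seedlings transplanted into silt loam, then flooded with water held at 1.5–3 cm above soil; herbicide applied post-transplant. Plants kept in greenhouse and rated visually 0–9 versus untreated control for stand, vigor, malformation, size and chlorosis.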

ORYSAT (Rice, Tebonnet) [8] = test: Preemergence herbicidal evaluation; assay type: in vivo, Oryza sativa, (L.) Tebonnet; conditions: preemergence, rated 4-5 weeks after treatment
[9] = test system: ABUTH (Abutilon theophrasti); test: Preemergence herbicidal evaluation; assay type: in vivo, Medic.; conditions: preemergence, rated 4-5 weeks after treatment
[10] = test system: CYPSE (Cyperus serotinus); test: Flooded paddy, preemergence weed control; assay type: in vivo, Rottb.; conditions: rate 0.1250 kg/ha, rated 3-4 weeks after treatment, 0-9 rating scale
Experimental: Results of herbicide evaluation are expressed on a rating scale (0-9). The scale is based upon a visual observation of plant stand, vigor, malformation, size, chlorosis and overall plant appearance as compared with a control.
Preemergence herbicidal activity under flooded paddy conditions is determined as follows: plant seeds or propagating organs are planted in the top 0.5 cm of silt loam soil in 32 oz. plastic containers with a diameter of 10.5 cm and no drainage holes. Water is added to these containers and maintained at 1.5 to 3 cm above the soil surface for the duration of the experiment. The test compounds are applied as aqueous/acetone mixtures 50/50 v/v pipetted directly into the flood water to give the equivalent of about 0.0080 to 0.1250 kg/ha of active ingredient. The treated containers are placed on greenhouse benches and cared for in accordance with conventional greenhouse procedures. Three to four weeks after treatment, the test is terminated and each container is examined and herbicidal effect rated according to the rating system provided in Example 87.

[11] = test system: IPOHE (Ipomoea hederacea); test: Preemergence herbicidal evaluation; assay type: in vivo, (L.) Jacq.; conditions: preemergence, rated 4-5 weeks after treatment
[12] = test system: SAGPY (Sagittaria pygmaea); test: Flooded paddy, preemergence weed control; assay type: in vivo, L.; conditions: rate 0.1250 kg/ha, rated 3-4 weeks after treatment, 0-9 rating scale
Method in brief: as §3

ORYSAT (Rice, Tebonnet) [13] = test: Postemergence herbicidal evaluation; assay type: in vivo, Oryza sativa, (L.) Tebonnet
Method in brief: as §2

SETVI (Setaria viridis) [14] = test: Postemergence herbicidal evaluation; assay type: in vivo, (L.) Beau
Method in brief: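 Visual injury score (0-9: stand, vigor, malformation, size, chlorosis, overall appearance vs untreated control) taken four to five weeks post-spray. Two-week-old seedlings received about 0.0040 to 1.000 kg/ha active compound in acetone/water with 0.5% TWEEN 20.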

[15] = test system: GLXMAW (Soybean, Williams); test: Preemergence herbicidal evaluation; assay type: in vivo, Glycine max, (L.) Merr. cv Williams; conditions: preemergence, rated 4-5 weeks after treatment
[16] = test system: ABUTH (Abutilon theophrasti); test: Postemergence herbicidal evaluation; assay type: in vivo, Medic.
Method in brief: as §2

SETVI (Setaria viridis) [17] = test: Preemergence herbicidal evaluation; assay type: in vivo, (L.) Beau; conditions: preemergence, rated 4-5 weeks after treatment
Method in brief: as §1

[18] = test system: ECHCG (Echinochloa crus-galli); test: Preemergence herbicidal evaluation; assay type: in vivo, (L.) Beau; conditions: preemergence, rated 4-5 weeks after treatment
Method in brief: as §1

[19] = test system: ECHCG (Echinochloa crus-galli); test: Postemergence herbicidal evaluation; assay type: in vivo, (L.) Beau
Method in brief: as §2

[20] = test system: AMBEL (Ambrosia artemisifolia); test: Postemergence herbicidal evaluation; assay type: in vivo, L.
Method in brief: as §2

[21] = test system: CASOB (Cassia obtusifolia); test: Postemergence herbicidal evaluation; assay type: in vivo, L.
Method in brief: as §2

[22] = test system: CHEAL (Chenopodium album); test: Postemergence herbicidal evaluation; assay type: in vivo, L.
Method in brief: as §2

[23] = test system: IPOHE (Ipomoea hederacea); test: Postemergence herbicidal evaluation; assay type: in vivo, (L.) Jacq.
Method in brief: as §2

CYPIR (Cyperus iria) = test: Flooded paddy, preemergence weed control; assay type: in vivo; conditions: rate 0.1250 kg/ha, rated 3-4 weeks after treatment, 0-9 rating scale
Method in brief: as §3

[24] = test system: TRZAWR (Wheat, Winter, cv Riband); test: Postemergence herbicidal evaluation; assay type: in vivo, Triticum aestivum
Method in brief: as §2

GALAP (Galium aparine) [25] = test: Preemergence herbicidal evaluation; assay type: in vivo; conditions: preemergence, rated 4-5 weeks after treatment
Method in brief: as §1

[26] = test system: MOOVA (Monochoria vaginalis); test: Flooded paddy, preemergence weed control; assay type: in vivo, Presl.; conditions: rate 0.1250 kg/ha, rated 3-4 weeks after treatment, 0-9 rating scale
Method in brief: as §3

[27] = test system: TRZAWR (Wheat, Winter, cv Riband); test: Preemergence herbicidal evaluation; assay type: in vivo, Triticum aestivum; conditions: preemergence, rated 4-5 weeks after treatment
Method in brief: as §1

ZEAMX (Corn, Field) [28] = test: Preemergence herbicidal evaluation; assay type: in vivo, Zea mays, L.; conditions: preemergence, rated 4-5 weeks after treatment
ZEAMX (Corn, Field) [29] = test: Postemergence herbicidal evaluation; assay type: in vivo, Zea mays, L.
Method in brief: as §2

Cc1nnc(-c2nsc3ccc(-n4c(=O)cc(C(F)(F)F)n(C)c4=O)cc23)o1 [Compound 16, 1-methyl-3-[3-(5-methyl-1,3,4-oxadiazol-2-yl)-1,2-benzisothiazol-5-yl]-6-(trifluoromethyl)uracil]
4.5: herbicidal rating, SAGPY [12] | Postemergence herbicidal rating, SETVI (SETVI (Setaria viridis) [14]; rate 0.1250 kg/ha) | Postemergence herbicidal rating, ABUTH ([16]; rate 0.1250 kg/ha) | Postemergence herbicidal rating, AMBEL ([20]; rate 0.1250 kg/ha) | Postemergence herbicidal rating, IPOHE ([23]; rate 0.1250 kg/ha)
1.5: Postemergence herbicidal rating, ECHCG ([19]; rate 0.1250 kg/ha)
7.5: GLXMAW preemergence herbicidal rating ([15]; Rate 0.2500 kg/ha) | ZEAMX preemergence herbicidal rating (ZEAMX (Corn, Field) [28]; Rate 0.2500 kg/ha)
3.0: Postemergence herbicidal rating, GALAP (GALAP (Galium aparine) [4]; rate 0.1250 kg/ha) | Postemergence herbicidal rating, ORYSAT (ORYSAT (Rice, Tebonnet) [13]; rate 0.1250 kg/ha) | Postemergence herbicidal rating, TRZAWR ([24]; rate 0.1250 kg/ha)
9.0: AMBEL preemergence herbicidal rating ([1]; Rate 0.2500 kg/ha) | CASOB preemergence herbicidal rating ([2]; Rate 0.2500 kg/ha) | CHEAL preemergence herbicidal rating ([3]; Rate 0.2500 kg/ha) | ABUTH preemergence herbicidal rating ([9]; Rate 0.2500 kg/ha) | IPOHE preemergence herbicidal rating ([11]; Rate 0.2500 kg/ha) | SETVI preemergence herbicidal rating (SETVI (Setaria viridis) [17]; Rate 0.2500 kg/ha) | ECHCG preemergence herbicidal rating ([18]; Rate 0.2500 kg/ha) | herbicidal rating, MOOVA [26]
7.0: ORYSAT preemergence herbicidal rating (ORYSAT (Rice, Tebonnet) [8]; Rate 0.2500 kg/ha) | GALAP preemergence herbicidal rating (GALAP (Galium aparine) [25]; Rate 0.2500 kg/ha) | TRZAWR preemergence herbicidal rating ([27]; Rate 0.2500 kg/ha)
5.5: herbicidal rating, ORYSAT (rice tolerance) (ORYSAT (Rice, Tebonnet) [7])
5.8: Postemergence herbicidal rating, GLXMAW ([6]; rate 0.1250 kg/ha)
4.3: Postemergence herbicidal rating, ZEAMX (ZEAMX (Corn, Field) [29]; rate 0.1250 kg/ha)
8.5: herbicidal rating, CYPIR (CYPIR (Cyperus iria))
3.5: Postemergence herbicidal rating, CASOB ([21]; rate 0.1250 kg/ha) | Postemergence herbicidal rating, CHEAL ([22]; rate 0.1250 kg/ha)
6.0: herbicidal rating, CYPSE [10]
8.0: herbicidal rating, ECHORC [5]

Cn1c(C(F)(F)F)cc(=O)n(-c2cc3c(-c4ccccn4)nsc3cc2F)c1=O [Compound 25, 3-[6-fluoro-3-(2-pyridyl)-1,2-benzisothiazol-5-yl]-1-methyl-6-(trifluoromethyl)uracil]
9.0: AMBEL preemergence herbicidal rating ([1]; Rate 0.1250 kg/ha) | CASOB preemergence herbicidal rating ([2]; Rate 0.1250 kg/ha) | CHEAL preemergence herbicidal rating ([3]; Rate 0.1250 kg/ha) | herbicidal rating, ECHORC [5] | Postemergence herbicidal rating, GLXMAW ([6]; rate 0.0620 kg/ha) | herbicidal rating, ORYSAT (rice tolerance) (ORYSAT (Rice, Tebonnet) [7]) | ORYSAT preemergence herbicidal rating (ORYSAT (Rice, Tebonnet) [8]; Rate 0.1250 kg/ha) | ABUTH preemergence herbicidal rating ([9]; Rate 0.1250 kg/ha) | herbicidal rating, CYPSE [10] | IPOHE preemergence herbicidal rating ([11]; Rate 0.1250 kg/ha) | herbicidal rating, SAGPY [12] | Postemergence herbicidal rating, SETVI (SETVI (Setaria viridis) [14]; rate 0.0620 kg/ha) | Postemergence herbicidal rating, ABUTH ([16]; rate 0.0620 kg/ha) | SETVI preemergence herbicidal rating (SETVI (Setaria viridis) [17]; Rate 0.1250 kg/ha) | ECHCG preemergence herbicidal rating ([18]; Rate 0.1250 kg/ha) | Postemergence herbicidal rating, AMBEL ([20]; rate 0.0620 kg/ha) | Postemergence herbicidal rating, CASOB ([21]; rate 0.0620 kg/ha) | Postemergence herbicidal rating, CHEAL ([22]; rate 0.0620 kg/ha) | Postemergence herbicidal rating, IPOHE ([23]; rate 0.0620 kg/ha) | herbicidal rating, CYPIR (CYPIR (Cyperus iria)) | herbicidal rating, MOOVA [26] | TRZAWR preemergence herbicidal rating ([27]; Rate 0.1250 kg/ha)
5.0: GALAP preemergence herbicidal rating (GALAP (Galium aparine) [25]; Rate 0.1250 kg/ha)
4.5: Postemergence herbicidal rating, TRZAWR ([24]; rate 0.0620 kg/ha)
8.0: ZEAMX preemergence herbicidal rating (ZEAMX (Corn, Field) [28]; Rate 0.1250 kg/ha)
4.0: Postemergence herbicidal rating, GALAP (GALAP (Galium aparine) [4]; rate 0.0620 kg/ha)
7.0: GLXMAW preemergence herbicidal rating ([15]; Rate 0.1250 kg/ha) | Postemergence herbicidal rating, ZEAMX (ZEAMX (Corn, Field) [29]; rate 0.0620 kg/ha)
3.0: Postemergence herbicidal rating, ORYSAT (ORYSAT (Rice, Tebonnet) [13]; rate 0.0620 kg/ha) | Postemergence herbicidal rating, ECHCG ([19]; rate 0.0620 kg/ha)
